These results are taken from patent publication US11590139B2, “Substituted aminopurine compounds, compositions thereof, and methods of treatment therewith” (Signal Pharmaceuticals, LLC, priority 2014, dated 2023).

SMILES strings stand for the structures. pIC50: −log10 of the molar value.

The first assay has as its system Lox-IMVI melanoma cell line. Briefly: Lox-IMVI anti-proliferative assay (growth inhibition, Cell Titer-Glo). The assay is classed as cell-based, human. The settings on record: Homo sapiens; IC50 activity level in the cell-based Lox-IMVI anti-proliferative assay; read-out: Activity. An outline of the steps: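 IC50 values reflect the concentration giving 50% of DMSO-control luminescence after 72 h of treatment, fitted with a four-parameter logistic model. Cells were cultured in RPMI + 10% FBS with compound from 0.5 nM to 10 μM.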
(In ATP-based viability assays light output follows the ATP content of the culture.)
As for `NC(=O)[C@H]1CC[C@@H](n2c(Nc3ccc(Cl)c(Cl)c3Cl)nc3cnc(NC4CCOCC4)nc32)CC1` [Example 73, (1s,4s)-4-(2-(tetrahydro-2H-pyran-4-ylamino)-8-(2,3,4-trichlorophenylamino)-9H-purin-9-yl)cyclohexanecarboxamide], the pIC50 is < 6.00.

Consider `C[C@@H]1CC[C@@H](Nc2ncc3nc(Nc4ccc(Cl)cc4Cl)n([C@H]4CC[C@@H](C(N)=O)CC4)c3n2)C[C@H]1O` [Example 391, (1S,4s)-4-(8-(2,4-dichlorophenylamino)-2-((1R,3R,4R)-3-hydroxy-4-methylcyclohexylamino)-9H-purin-9-yl)cyclohexanecarboxamide], for which the pIC50 is < 6.00.

For the compound `NC(=O)[C@H]1CC[C@@H](n2c(Nc3c(Cl)cc(F)cc3Cl)nc3cnc(NC4CCCC4)nc32)CC1` [Example 121, (1s,4s)-4-(2-(cyclopentylamino)-8-(2,6-dichloro-4-fluorophenylamino)-9H-purin-9-yl)cyclohexanecarboxamide], the pIC50 was 6.00 to 6.30.

Turning to `NC(=O)[C@H]1CC[C@@H](n2c(Nc3cc(F)c(Cl)cc3F)nc3cnc(N[C@@H]4COC[C@H]4O)nc32)CC1` [Example 321, (1S,4s)-4-(8-(4-chloro-2,5-difluorophenylamino)-2-((3R,4S)-4-hydroxytetrahydrofuran-3-ylamino)-9H-purin-9-yl)cyclohexanecarboxamide], the pIC50 is < 6.00.

Consider `NC(=O)[C@H]1CC[C@@H](n2c(Nc3c(Cl)cc(F)cc3Cl)nc3cnc(NC4CC5(COC5)C4)nc32)CC1` [Example 193, (1s,4s)-4-(2-(2-oxaspiro[3.3]heptan-6-ylamino)-8-(2,6-dichloro-4-fluorophenylamino)-9H-purin-9-yl)cyclohexanecarboxamide], for which the pIC50 is < 6.00.

As to `NC(=O)[C@H]1CC[C@@H](n2c(Nc3cccc(Cl)c3F)nc3cnc(N[C@@H]4CCC[C@H]4O)nc32)CC1` [Example 263, (1S,4s)-4-(8-(3-chloro-2-fluorophenylamino)-2-((1R,2R)-2-hydroxycyclopentylamino)-9H-purin-9-yl)cyclohexanecarboxamide], the pIC50 is < 6.00.

In the case of `NC(=O)[C@H]1CC[C@@H](n2c(Nc3c(F)cccc3Cl)nc3cnc(NC4CCN(c5ccccc5)CC4)nc32)CC1` [Example 108, (1s,4s)-4-(8-(2-chloro-6-fluorophenylamino)-2-(1-phenylpiperidin-4-ylamino)-9H-purin-9-yl)cyclohexanecarboxamide], the pIC50 is < 6.00.

With `NC(=O)[C@H]1CC[C@@H](n2c(Nc3ccc(Cl)c(F)c3F)nc3cnc(NC4CC5(COC5)C4)nc32)CC1` [Example 194, (1s,4s)-4-(2-(2-oxaspiro[3.3]heptan-6-ylamino)-8-(4-chloro-2,3-difluorophenylamino)-9H-purin-9-yl)cyclohexanecarboxamide], the pIC50 was < 6.00.

`NC(=O)[C@H]1CC[C@@H](n2c(Nc3cc(F)c(Cl)cc3F)nc3cnc(N[C@@H]4CCC[C@H](O)C4)nc32)CC1` [Example 363, (1S,4s)-4-(8-(4-chloro-2,5-difluorophenylamino)-2-((1R,3S)-3-hydroxycyclohexylamino)-9H-purin-9-yl)cyclohexanecarboxamide]: the pIC50 was < 6.00.

With `NC(=O)[C@H]1CC[C@@H](n2c(Nc3cccc(Cl)c3Cl)nc3cnc(NC4CCOCC4)nc32)CC1` [Example 62, (1s,4s)-4-(8-(2,3-dichlorophenylamino)-2-(tetrahydro-2H-pyran-4-ylamino)-9H-purin-9-yl)cyclohexanecarboxamide], the pIC50 is < 6.00.

With `NC(=O)[C@H]1CC[C@@H](n2c(Nc3c(F)cc(Cl)cc3Cl)nc3cnc(N[C@H]4C[C@H](O)C4)nc32)CC1` [Example 301, (1s,4s)-4-(8-(2,4-dichloro-6-fluorophenylamino)-2-((1r,3r)-3-hydroxycyclobutylamino)-9H-purin-9-yl)cyclohexanecarboxamide], the pIC50 was 6.00 to 6.30.

With `CC(C)Nc1ncc2nc(Nc3c(Cl)cccc3Cl)n([C@H]3CC[C@@H](C(N)=O)CC3)c2n1` [Example 52], the pIC50 was < 6.00.

In the case of `NC(=O)[C@H]1CC[C@@H](n2c(Nc3cccc(F)c3F)nc3cnc(NC4CCCC4)nc32)CC1` [Example 139, (1s,4s)-4-(2-(cyclopentylamino)-8-(2,3-difluorophenylamino)-9H-purin-9-yl)cyclohexanecarboxamide], the pIC50 was < 6.00.

The assay is the same for the next values; noted with them: Homo sapiens; Lox-IMVI anti-proliferative assay, IC50 activity level; read-out: Activity.
Consider `C[C@]1(O)CCC[C@@H](Nc2ncc3nc(Nc4c(F)cc(Cl)cc4Cl)n([C@H]4CC[C@@H](C(N)=O)CC4)c3n2)C1` [Example 427, (1S,4s)-4-(8-(2,4-dichloro-6-fluorophenylamino)-2-((1R,3S)-3-hydroxy-3-methylcyclohexylamino)-9H-purin-9-yl)cyclohexanecarboxamide], for which the pIC50 was 6.00 to 6.30.

Turning to `C[C@H]1COCC[C@H]1Nc1ncc2nc(Nc3c(F)cc(Cl)cc3Cl)n([C@H]3CC[C@@H](C(N)=O)CC3)c2n1` [Example 505, (1S,4s)-4-(8-(2,4-dichloro-6-fluorophenylamino)-2-((3R,4R)-3-methyltetrahydro-2H-pyran-4-ylamino)-9H-purin-9-yl)cyclohexanecarboxamide], the pIC50 was 6.30 to 6.60.

Take `NC(=O)[C@H]1CC[C@@H](n2c(Nc3c(F)cc(Cl)cc3Cl)nc3cnc(N[C@@H]4CCCC[C@H]4O)nc32)CC1` [Example 470, (1S,4s)-4-(8-(2,4-dichloro-6-fluorophenylamino)-2-((1R,2R)-2-hydroxycyclohexylamino)-9H-purin-9-yl)cyclohexanecarboxamide]: the pIC50 is < 6.00.

Turning to `NC(=O)[C@H]1CC[C@@H](n2c(Nc3c(F)cc(Cl)cc3F)nc3cnc(N[C@@H]4CCCC[C@H]4O)nc32)CC1` [Example 467, (1S,4s)-4-(8-(4-chloro-2,6-difluorophenylamino)-2-((1R,2R)-2-hydroxycyclohexylamino)-9H-purin-9-yl)cyclohexanecarboxamide], the pIC50 was < 6.00.

For `C[C@]1(O)CCC[C@@H](Nc2ncc3nc(Nc4c(Cl)cccc4Cl)n([C@H]4CC[C@@H](C(N)=O)CC4)c3n2)C1` [Example 424, (1S,4s)-4-(8-(2,6-dichlorophenylamino)-2-((1R,3S)-3-hydroxy-3-methylcyclohexylamino)-9H-purin-9-yl)cyclohexanecarboxamide], the pIC50 is < 6.00.

On to `NC(=O)[C@H]1CC[C@@H](n2c(Nc3c(F)cc(Cl)cc3F)nc3cnc(N[C@@H]4CCC(F)(F)C4)nc32)CC1` [Example 588, (1S,4s)-4-(8-(4-chloro-2,6-difluorophenylamino)-2-((R)-3,3-difluorocyclopentylamino)-9H-purin-9-yl)cyclohexanecarboxamide], for which the pIC50 is > 6.60.

As for `NC(=O)[C@H]1CC[C@@H](n2c(Nc3c(Cl)cc(Cl)cc3Cl)nc3cnc(N[C@@H]4CCCC[C@H](O)C4)nc32)CC1` [Example 439, (1S,4s)-4-(2-((1R,3S)-3-hydroxycycloheptylamino)-8-(2,4,6-trichlorophenylamino)-9H-purin-9-yl)cyclohexanecarboxamide], the pIC50 is < 6.00.

For the compound `COC(=O)N1CCCC(Nc2ncc3nc(Nc4c(F)ccc(Cl)c4F)n([C@H]4CC[C@@H](C(N)=O)CC4)c3n2)C1` (stereo partly drawn) [Example 413, (R)-methyl 3-(9-((1s,4S)-4-carbamoylcyclohexyl)-8-(3-chloro-2,6-difluorophenylamino)-9H-purin-2-ylamino)piperidine-1-carboxylate], the pIC50 is < 6.00.

On to `C[C@]1(C(N)=O)CC[C@H](n2c(Nc3c(F)cc(Cl)cc3Cl)nc3cnc(NC4CCC(F)(F)CC4)nc32)CC1` [Example 478, (1r,4r)-4-(8-(2,4-dichloro-6-fluorophenylamino)-2-(4,4-difluorocyclohexylamino)-9H-purin-9-yl)-1-methylcyclohexanecarboxamide], for which the pIC50 was < 6.00.

Regarding `NC(=O)[C@H]1CC[C@@H](n2c(Nc3c(Cl)cc(F)cc3Cl)nc3cnc(N[C@H]4CCCC[C@H]4O)nc32)CC1` [Example 516, (1R,4s)-4-(8-(2,6-dichloro-4-fluorophenylamino)-2-((1S,2R)-2-hydroxycyclohexylamino)-9H-purin-9-yl)cyclohexanecarboxamide], the pIC50 was < 6.00.

Consider `NC(=O)[C@H]1CC[C@@H](n2c(Nc3c(F)cc(Cl)cc3Cl)nc3cnc(N[C@H]4CCC(F)(F)C4)nc32)CC1` [Example 591, (1R,4s)-4-(8-(2,4-dichloro-6-fluorophenylamino)-2-((S)-3,3-difluorocyclopentylamino)-9H-purin-9-yl)cyclohexanecarboxamide], for which the pIC50 is 6.30 to 6.60.

Still in this assay, the particulars now being: Homo sapiens; Lox-IMVI melanoma cell line, anti-proliferative assay; read-out: Activity (IC50 activity level).
Take `C[C@@H]1COCC[C@H]1Nc1ncc2nc(Nc3c(Cl)cc(Cl)cc3Cl)n([C@H]3CC[C@@](C)(C(N)=O)CC3)c2n1` [Example 727, (1S,4s)-1-methyl-4-(2-((3S,4R)-3-methyltetrahydro-2H-pyran-4-ylamino)-8-(2,4,6-trichlorophenylamino)-9H-purin-9-yl)cyclohexanecarboxamide]: the pIC50 is > 6.60.

Take `N#Cc1cc(Cl)c(Nc2nc3cnc(N[C@H]4CCOC[C@H]4F)nc3n2[C@H]2CC[C@@H](C(N)=O)CC2)c(Cl)c1` [Example 765, (1R,4s)-4-(8-(2,6-dichloro-4-cyanophenylamino)-2-((3S,4S)-3-fluorotetrahydro-2H-pyran-4-ylamino)-9H-purin-9-yl)cyclohexanecarboxamide]: the pIC50 was > 6.60.

The assay is the same for the next values; noted with them: Lox-IMVI melanoma cell line, anti-proliferative assay; read-out: Activity (IC50 activity level).
As for `C[C@]1(C(N)=O)CC[C@@H](n2c(Nc3c(F)cc(C#N)cc3F)nc3cnc(N[C@@H]4CCC[C@@H](O)C4)nc32)CC1` [Example 642, (1S,4s)-4-(8-(4-cyano-2,6-difluorophenylamino)-2-((1R,3R)-3-hydroxycyclohexylamino)-9H-purin-9-yl)-1-methylcyclohexanecarboxamide], the pIC50 was < 6.00.
